Earlier results on two compounds are cited in patent US20260207574A1, “Pharmaceutical composition of pitolisant hydrochloride and Their Process for the preparation” (MSN Laboratories Private Limited, R & D Center, priority 2022, published 2026).

For data set [1] the following is noted: until 75% RH; as per EMA.
The conditions of data set [2]: leads to N-oxide derivative as main degradation product; as per EMA.

Where a name gives a salt, the structure may show the parent alone.

With `Clc1ccc(CCCOCCCN2CCCCC2)cc1` [Pitolisant hydrochloride, 1-{3-[3-(4-chlorophenyl)propoxy]propyl} piperidine, hydrochloride], where the note is “acetone”, the solubility in acetone result is on record as “freely soluble”. Moreover, the solubility in cyclohexane result (cyclohexane) is on record as “practically insoluble”. The solubility in ethanol result (ethanol) is “very soluble”. For the same compound, the “solubility in methylene chloride” value (methylene chloride) is given as “very soluble”. Also, the solubility in water result (water) is “very soluble”.

For the compound `Clc1ccc(CCCOCCCN2CCCCC2)cc1` [pitolisant], the hygroscopicity entry in data set [1] was “not hygroscopic”. Besides, the “sensitivity to oxidative conditions” value in data set [2] is reported as “sensitive to excessive oxidative conditions”. Besides, the “solubility in water until pH 7.5” value (water, until pH 7.5, as per EMA) is recorded as “very soluble”.
